{"source": "patent US11234960B2", "about": "“Compositions and methods for improving mitochondrial function and treating neurodegenerative diseases and cognitive disorders” (Amazentis SA, priority 2010, dated 2022)", "format_in_all_cases": "in vivo", "key": {"[1]": {"test_system": "maternally separated mice", "assay": "Elevated O-maze in early-life stress mice", "settings": "90 mg/kg/day in food (FIG. 40)", "method": "(§1) At postnatal day 1, pups were culled to have 6 pups per mother. From postnatal day 1 to 14, unpredictable maternal separation (MS) of a period of 3 hours daily was carried out. Maternal separation was performed at random times (from 8 am to 2 pm) to avoid the habituation of the mother to the procedure. The protocol consisted of removing pups from their mother to another cage at room temperature for a 3 hour period, after which the pups were returned to their original nest. These groups are denoted as early-life stress in the figures. A control group of dam/pups was left undisturbed and is denoted in the figures as normal.\nOne week after maternal separation mice were separated into two groups. One control group received the standard mouse chow diet (Untreated), while the other group received the ellagitannin punicalagin admixed into the food and designed to deliver a dose of 90 mg/kg/day to the mice. Treatment with the diet began 1 week after the termination of the maternal separation treatment. […]\nTo examine the effect of early life stress, mice were placed at the entrance of one of the areas of the maze with the 5 cm walls, with the nose facing the closed arm, and were allowed to explore the EOM for 5 min. […] The time spent in each arm (closed versus open) was calculated, with an entry into the arm only being considered to have occurred when the animal placed all four paws in the arm."}, "[2]": {"test_system": "maternally separated mice", "assay": "Dark/light box test in early-life stress (maternal separation) mice", "settings": "90 mg/kg/day in food (FIG. 39)", "method": "as §1\nOne week after maternal separation mice were separated into two groups. One control group received the standard mouse chow diet (Untreated), while the other group received the ellagitannin punicalagin admixed into the food and designed to deliver a dose of 90 mg/kg/day to the mice. Treatment with the diet began 1 week after the termination of the maternal separation treatment.\nThe effects of early-life stress on depression, anxiety and cognition were examined utilizing the following behavioral assays which were carried out 166 days after the completion of the maternal separation protocol. Normally raised mice were compared versus maternally separated mice (early-life stress) and maternally separated mice treated with punicalagin. […]"}, "[3]": {"test_system": "C57BL/6J mice exposed to chronic unpredictable stress", "assay": "Morris water maze in chronically stressed mice", "settings": "25 mg/kg/d (FIG. 34)", "method": "Three weeks before the initiation of the chronic stress protocol mice were separated into four different groups. One group received standard mouse chow diet (Control), while the remaining three groups received varying doses of extract 1011, an extract derived from pomegranate juice. Low dose corresponded to an extract dose of 21 mg/kg/d of gallic acid equivalents of polyphenols (GAE PPE), the medium dose corresponded to an extract dose of 43 mg/kg/d of GAE PPE, the high dose corresponded to an extract dose of 86 mg/kg/d of GAE PPE (see Table 5).\nThree weeks before the initiation of the chronic stress protocol, mice were separated into two groups. […]\nThe unpredictable chronic stress protocol involved exposing animals to a daily stressful situation at an unpredictable moment for 4 weeks (between 8 am and 4 pm, and randomly distributed over the 28 days). […] All animals were weighed and the state of their coat was evaluated on a regular basis (every 3-5 days). […]\nEach trial started by introducing the mouse into the maze with the aid of a cup, facing the pool wall, and at one of four possible positions that were randomly balanced between trials and days. The distance between the mouse and the platform was measured at each sampling time, with 25 sampling times collected per second. […]"}, "normal mice": {"test_system": "normal mice", "assay": "Treadmill endurance test in normal mice", "settings": "55 mg/kg/day in food, 6 weeks of treatment (FIG. 49)", "method": "Normal 8-week-old mice were acclimated for 2 weeks prior to the start of the study. Mice were fed with a standard rodent diet (chow diet) or a diet containing urolithin A mixed with the food to reach a dosing of 55 mg/kg/day delivered to the mice. Following 6 weeks of treatment, mice were tested for their muscle performance by means of an endurance test.\nAn endurance test was performed using a variable speed belt treadmill enclosed in a plexiglass chamber with a stimulus device consisting of a shock grid attached to the rear of the belt (Panlab, Barcelona, Spain). Mice were run at 10 cm/sec and a 0° of incline for 5 min. Speed was then incremented by 2 cm/sec every 5 min, until mice were exhausted. The distance run and the number of shocks obtained over 5 min intervals were recorded. Mice were considered exhausted and removed from the experiment when they received approximately 20 shocks in a period of 1 min. Control untreated and urolithin A-treated mice were tested and compared for their performance.\nImproved muscle performance and endurance is reflected by an ability to run at higher speeds on the treadmill. Mice will seek to avoid the shock and will run despite the increasing speed. At a certain point the mice are unable to keep up with the treadmill speed and are shocked. After reaching the threshold levels of shocks, mice are removed from the treadmill. […]"}}, "data": [{"compound": "O=C1O[C@H]2[C@@H]3OC(=O)c4cc(O)c(O)c(O)c4-c4c(O)c(O)c5oc(=O)c6c(c(O)c(O)c7oc(=O)c4c5c76)-c4c(cc(O)c(O)c4O)C(=O)OC[C@H]3OC(O)[C@@H]2OC(=O)c2cc(O)c(O)c(O)c2-c2c1cc(O)c(O)c2O", "note": "(mixture of isomers) [punicalagin, 2,3 hexahydroxydiphenoyl-4,6-gallagylglucose]", "values": [{"measurement": "time spent in open sections of O-maze (risk taking)", "setting": "[1]", "result": "reversed and normalized their abnormal excessive risk taking behaviour"}, {"measurement": "time spent in lit area (risk-taking behavior)", "setting": "[2]", "result": "reversed and normalized the excessive risk-taking behavior"}]}, {"compound": "O=c1oc2cc(O)ccc2c2ccc(O)cc12", "note": "[urolithin A, 3,8-Dihydroxydibenzo-α-pyrone]", "values": [{"measurement": "Morris water maze learning, variability of distance to platform between sequential trials", "setting": "[3]", "result": "stabilization of this variability"}, {"measurement": "muscle performance and endurance, treadmill speed", "setting": "normal mice", "result": "ran at higher speeds than untreated control mice"}]}]}
